{"source": "ChEMBL document CHEMBL1921748", "about": "“Renin inhibitors for the treatment of hypertension: design and optimization of a novel series of spirocyclic piperidines” (Bioorg Med Chem Lett, 2011)", "key": {"[1]": {"assay": "Oral bioavailability in Sprague-Dawley rat at 30 mg/kg", "format": "ADME, organism-based", "conditions": "in vivo"}, "[2]": {"assay": "Oral bioavailability in Sprague-Dawley rat at 0.3 mg/kg", "format": "ADME, organism-based", "conditions": "in vivo"}, "[3]": {"assay": "Clearance in Sprague-Dawley rat at 0.3 mg/kg, po", "format": "ADME, organism-based", "set-up": "dose 0.3 mg/kg, route oral", "conditions": "in vivo"}, "[4]": {"assay": "Apparent permeability of the compound", "format": "ADME", "conditions": "not told"}, "[5]": {"assay": "Half life in Sprague-Dawley rat at 0.3 mg/kg, po", "format": "ADME, organism-based", "set-up": "dose 0.3 mg/kg, route oral", "conditions": "in vivo"}, "Rattus norvegicus": {"system": "Rattus norvegicus", "assay": "Volume of distribution at steady state in Sprague-Dawley rat at 0.3 mg/kg, po", "format": "ADME, organism-based", "set-up": "dose 0.3 mg/kg, route oral", "conditions": "in vivo"}, "[6]": {"assay": "Oral bioavailability in Sprague-Dawley rat at 3 mg/kg", "format": "ADME, organism-based", "conditions": "in vivo"}, "[7]": {"assay": "Metabolic stability in Sprague-Dawley rat hepatocytes assessed as compound remaining at 10 uM after 2 hrs", "format": "ADME, cell-based, Hepatocyte", "conditions": "read-out: Stability"}, "[8]": {"assay": "Metabolic stability in human liver microsomes assessed as compound remaining at 1 uM after 30 mins in presence of NADPH", "format": "ADME, Microsome", "conditions": "read-out: Stability"}, "[9]": {"assay": "Metabolic stability in rat liver microsomes assessed as compound remaining at 1 uM after 30 mins in presence of NADPH", "format": "ADME, Microsome", "conditions": "read-out: Stability"}, "in vitro": {"assay": "in vitro", "conditions": "human, liver microsomes"}, "[10]": {"assay": "Metabolic stability in rhesus monkey liver microsomes assessed as compound remaining at 1 uM after 30 mins in presence of NADPH", "format": "ADME, Macaca mulatta, Microsome", "conditions": "read-out: Stability"}, "[11]": {"assay": "Metabolic stability in dog liver microsomes assessed as compound remaining at 1 uM after 30 mins in presence of NADPH", "format": "ADME, Canis lupus familiaris, Microsome", "conditions": "read-out: Stability"}, "[12]": {"assay": "Clearance in Sprague-Dawley rat at 3 mg/kg, po and 0.5 mg/kg, iv", "format": "ADME, organism-based", "conditions": "in vivo"}, "[13]": {"assay": "Half life in Beagle dog at 3 mg/kg, po and 1 mg/kg, iv", "format": "ADME, organism-based, Canis lupus familiaris", "conditions": "in vivo"}, "[14]": {"assay": "Volume of distribution at steady state in Beagle dog at 3 mg/kg, po and 1 mg/kg, iv", "format": "ADME, organism-based, Canis lupus familiaris", "conditions": "in vivo, read-out: Vdss"}, "[15]": {"assay": "AUC in Beagle dog at 3 mg/kg, po", "format": "ADME, organism-based, Canis lupus familiaris", "set-up": "dose 3 mg/kg, route oral", "conditions": "plasma"}, "[16]": {"assay": "Half life in rhesus monkey at 3 mg/kg, po and 1 mg/kg, iv", "format": "ADME, organism-based, Macaca mulatta", "conditions": "in vivo"}, "[17]": {"assay": "Volume of distribution at steady state in rhesus monkey at 3 mg/kg, po and 1 mg/kg, iv", "format": "ADME, organism-based, Macaca mulatta", "conditions": "in vivo, read-out: Vdss"}, "[18]": {"assay": "AUC in Sprague-Dawley rat at 3 mg/kg, po", "format": "ADME, organism-based", "set-up": "dose 3 mg/kg, route oral", "conditions": "plasma"}, "[19]": {"assay": "Clearance in rhesus monkey at 3 mg/kg, po and 1 mg/kg, iv", "format": "ADME, organism-based, Macaca mulatta", "conditions": "in vivo"}, "[20]": {"assay": "Half life in Sprague-Dawley rat at 3 mg/kg, po and 0.5 mg/kg, iv", "format": "ADME, organism-based", "conditions": "in vivo"}, "[21]": {"assay": "AUC in rhesus monkey at 3 mg/kg, po", "format": "ADME, organism-based, Macaca mulatta", "set-up": "dose 3 mg/kg, route oral", "conditions": "plasma"}, "[22]": {"assay": "Oral bioavailability in Beagle dog at 3 mg/kg", "format": "ADME, organism-based, Canis lupus familiaris", "conditions": "in vivo"}, "[23]": {"assay": "Volume of distribution at steady state in Sprague-Dawley rat at 3 mg/kg, po and 0.5 mg/kg, iv", "format": "ADME, organism-based", "conditions": "in vivo, read-out: Vdss"}, "[24]": {"assay": "Oral bioavailability in rhesus monkey at 3 mg/kg", "format": "ADME, organism-based, Macaca mulatta", "conditions": "in vivo"}, "[25]": {"assay": "Clearance in Beagle dog at 3 mg/kg, po and 1 mg/kg, iv", "format": "ADME, organism-based, Canis lupus familiaris", "conditions": "in vivo"}}}
{"smiles": "COCCCc1cc(CN(C(=O)[C@H]2CNCC[C@]2(O)c2ccc(F)c(F)c2)C2CC2)cc(OCCOC)c1", "values": [{"measurement": "bioavailability", "setting": "[1]", "value": 18, "unit": "%"}, {"measurement": "bioavailability", "setting": "[2]", "value": 17, "unit": "%"}, {"measurement": "CL/F", "setting": "[3]", "value": 36, "unit": "mL/min/kg"}, {"measurement": "Papp", "setting": "[4]", "value": 21.5, "unit": "×10⁻⁶ cm/s"}, {"measurement": "half-life", "setting": "[5]", "value": 1.5, "unit": "h"}, {"measurement": "Vdss", "setting": "Rattus norvegicus", "value": 5, "unit": "L/kg"}, {"measurement": "bioavailability", "setting": "[6]", "value": 29, "unit": "%"}]}
{"smiles": "Cc1cccc(CN(C(=O)[C@H]2CNCC[C@@]23OCc2cc(F)c(F)cc23)C2CC2)c1C", "values": [{"measurement": "remaining at 2 h, 10 µM", "setting": "[7]", "value": 8, "unit": "%"}, {"measurement": "remaining at 0.5 h, 1 µM", "setting": "[8]", "value": 1, "unit": "%"}, {"measurement": "remaining at 0.5 h, 1 µM", "setting": "[9]", "value": 0, "unit": "%"}]}
{"smiles": "O=C([C@H]1CNCC[C@@]12OCc1cc(F)c(F)cc12)N(Cc1cccc(C(F)(F)F)c1Cl)C1CC1", "values": [{"measurement": "remaining at 1 h, 10 µM", "setting": "in vitro", "value": 50, "unit": "%"}]}
{"smiles": "COCCCc1cc(CCCN2CCOCC2)c(Cl)c(CN(C(=O)[C@H]2CNCC[C@@]23OCc2cc(F)c(F)cc23)C2CC2)c1", "values": [{"measurement": "remaining at 0.5 h, 1 µM", "setting": "[10]", "value": 10, "unit": "%"}, {"measurement": "remaining at 0.5 h, 1 µM", "setting": "[11]", "value": 43, "unit": "%"}, {"measurement": "remaining at 0.5 h, 1 µM", "setting": "[8]", "value": 51, "unit": "%"}, {"measurement": "remaining at 0.5 h, 1 µM", "setting": "[9]", "value": 53, "unit": "%"}]}
{"smiles": "COCCCc1cc(CCCN2CCOCC2)c(Cl)c(CN(C(=O)[C@H]2CNCC[C@@]23OCc2cc(F)c(F)cc23)C2CC2)c1.Cl.Cl.Cl", "values": [{"measurement": "clearance", "setting": "[12]", "value": 47, "unit": "mL/min/kg"}, {"measurement": "half-life", "setting": "[13]", "value": 10, "unit": "h"}, {"measurement": "Vd", "setting": "[14]", "value": 73, "unit": "L/kg"}, {"measurement": "AUC", "setting": "[15]", "value": 0.01, "unit": "µM·h"}, {"measurement": "half-life", "setting": "[16]", "value": 5, "unit": "h"}, {"measurement": "Vd", "setting": "[17]", "value": 45, "unit": "L/kg"}, {"measurement": "AUC", "setting": "[18]", "value": 0.37, "unit": "µM·h"}, {"measurement": "clearance", "setting": "[19]", "value": 66, "unit": "mL/min/kg"}, {"measurement": "half-life", "setting": "[20]", "value": 5.3, "unit": "h"}, {"measurement": "AUC", "setting": "[21]", "value": 0.01, "unit": "µM·h"}, {"measurement": "bioavailability", "setting": "[22]", "value": 1, "unit": "%"}, {"measurement": "Vd", "setting": "[23]", "value": 24, "unit": "L/kg"}, {"measurement": "bioavailability", "setting": "[24]", "value": 1, "unit": "%"}, {"measurement": "bioavailability", "setting": "[6]", "value": 23, "unit": "%"}, {"measurement": "clearance", "setting": "[25]", "value": 73, "unit": "mL/min/kg"}]}
